Experimental data taken from the NIST ThermoML archive (doi:10.1016/j.jct.2014.10.001).
Several values for one entry are separate records, joined by “and”; a condition that tells them apart may be missing. Equal entries are not always repeated.

Assay: xn = mol fraction of the nth substance listed
Details: Gas, Buoyancy - hydrostatic balance with magnetic suspension - one sinker

FCC(F)(F)F [1,1,1,2-tetrafluoroethane] + CCC
Details	mass density
258.14 K, 113.78 kPa, x1 = 0.5401	4.1262 kg/m3
258.14 K, 154.11 kPa, x1 = 0.5401	5.651 kg/m3
258.15 K, 190.72 kPa, x1 = 0.5401	7.0674 kg/m3
258.15 K, 242.95 kPa, x1 = 0.5401	9.1445 kg/m3
258.16 K, 154.01 kPa, x1 = 0.7989	6.8087 kg/m3
258.16 K, 168.96 kPa, x1 = 0.2391	4.7661 kg/m3
258.17 K, 103.24 kPa, x1 = 0.2391	2.8628 kg/m3
258.17 K, 106.9 kPa, x1 = 0.7989	4.6538 kg/m3
258.18 K, 197.88 kPa, x1 = 0.7989	8.8817 kg/m3
258.19 K, 252.34 kPa, x1 = 0.2391	7.2822 kg/m3
263.13 K, 101.57 kPa, x1 = 0.5401	3.5945 kg/m3
263.13 K, 101.58 kPa, x1 = 0.5401	3.5946 kg/m3
263.14 K, 134.16 kPa, x1 = 0.6201	5.0876 kg/m3
263.14 K, 166.53 kPa, x1 = 0.5401	5.9917 kg/m3
263.14 K, 183.78 kPa, x1 = 0.7989	8.0203 kg/m3
263.14 K, 220.07 kPa, x1 = 0.5401	8.0347 kg/m3
263.14 K, 225.37 kPa, x1 = 0.7989	9.9705 kg/m3
263.14 K, 281.67 kPa, x1 = 0.5401	10.4652 kg/m3
263.15 K, 99.9 kPa, x1 = 0.7989	4.2498 kg/m3
263.15 K, 102.04 kPa, x1 = 0.2391	2.7715 kg/m3
263.15 K, 145.63 kPa, x1 = 0.7989	6.2807 kg/m3
263.15 K, 194.24 kPa, x1 = 0.6201	7.4918 kg/m3
263.15 K, 259.7 kPa, x1 = 0.6201	10.2107 kg/m3
263.16 K, 203.74 kPa, x1 = 0.2391	5.6732 kg/m3
263.17 K, 305.05 kPa, x1 = 0.2391	8.7279 kg/m3
268.12 K, 231.64 kPa, x1 = 0.7989	10.0266 kg/m3
268.13 K, 104.95 kPa, x1 = 0.7989	4.3792 kg/m3
268.13 K, 150.69 kPa, x1 = 0.7989	6.3684 kg/m3
268.13 K, 213.45 kPa, x1 = 0.6201	8.092 kg/m3
268.14 K, 104.92 kPa, x1 = 0.5401	3.6381 kg/m3
268.14 K, 125.37 kPa, x1 = 0.6201	4.6466 kg/m3
268.14 K, 190.18 kPa, x1 = 0.7989	8.1303 kg/m3
268.14 K, 285.39 kPa, x1 = 0.7989	12.5661 kg/m3
268.14 K, 300.29 kPa, x1 = 0.6201	11.6624 kg/m3
268.15 K, 183.8 kPa, x1 = 0.5401	6.4973 kg/m3
268.15 K, 268.92 kPa, x1 = 0.5401	9.7174 kg/m3
268.16 K, 198.02 kPa, x1 = 0.2391	5.3921 kg/m3
268.16 K, 341.03 kPa, x1 = 0.5401	12.5709 kg/m3
268.17 K, 119.34 kPa, x1 = 0.2391	3.1919 kg/m3
268.17 K, 286.65 kPa, x1 = 0.2391	7.9728 kg/m3
268.17 K, 365.93 kPa, x1 = 0.2391	10.3898 kg/m3
273.1 K, 170.36 kPa, x1 = 0.5401	5.8806 kg/m3
273.1 K, 283.04 kPa, x1 = 0.6201	10.6873 kg/m3
273.1 K, 358.16 kPa, x1 = 0.6201	13.8005 kg/m3
273.1 K, 411.8 kPa, x1 = 0.5401	15.1107 kg/m3
273.11 K, 105.09 kPa, x1 = 0.5401	3.5743 kg/m3
273.11 K, 121.2 kPa, x1 = 0.6201	4.3969 kg/m3
273.11 K, 251.59 kPa, x1 = 0.5401	8.853 kg/m3
273.11 K, 262.93 kPa, x1 = 0.7989	11.2212 kg/m3
273.11 K, 323.14 kPa, x1 = 0.5401	11.5758 kg/m3
273.12 K, 100.04 kPa, x1 = 0.7989	4.0831 kg/m3
273.12 K, 122.4 kPa, x1 = 0.2391	3.2081 kg/m3
273.12 K, 206.06 kPa, x1 = 0.6201	7.6287 kg/m3
273.12 K, 451.8 kPa, x1 = 0.2391	12.8024 kg/m3
273.13 K, 144.28 kPa, x1 = 0.7989	5.9572 kg/m3
273.13 K, 204.71 kPa, x1 = 0.2391	5.4646 kg/m3
273.13 K, 216.26 kPa, x1 = 0.7989	9.1063 kg/m3
273.13 K, 288.63 kPa, x1 = 0.2391	7.853 kg/m3
273.13 K, 319.28 kPa, x1 = 0.7989	13.8595 kg/m3
273.13 K, 364.79 kPa, x1 = 0.2391	10.1086 kg/m3
278.12 K, 123.52 kPa, x1 = 0.6201	4.396 kg/m3
278.13 K, 236.83 kPa, x1 = 0.6201	8.6438 kg/m3
278.14 K, 337.13 kPa, x1 = 0.6201	12.6083 kg/m3
278.14 K, 433.01 kPa, x1 = 0.6201	16.603 kg/m3
278.15 K, 103.41 kPa, x1 = 0.7989	4.1428 kg/m3
278.15 K, 194.41 kPa, x1 = 0.5401	6.606 kg/m3
278.15 K, 286.8 kPa, x1 = 0.7989	12.0403 kg/m3
278.15 K, 289.3 kPa, x1 = 0.5401	10.0435 kg/m3
278.15 K, 381.08 kPa, x1 = 0.7989	16.4363 kg/m3 and 16.4338 kg/m3
278.15 K, 419.02 kPa, x1 = 0.5401	15.0163 kg/m3
278.15 K, 504.76 kPa, x1 = 0.5401	18.5053 kg/m3
278.16 K, 115.44 kPa, x1 = 0.5401	3.8575 kg/m3
278.16 K, 152.51 kPa, x1 = 0.7989	6.1813 kg/m3
